From patent publication US8680152B2, “Cathepsin inhibitors for the treatment of bone cancer and bone cancer pain” (Virobay, Inc., priority 2011, dated 2014)

Assays:
[1] = test system: cathepsin S-dependent invariant chain processing; assay: Cathepsin S-dependent invariant chain processing in Raji B cells; type: cell-based; details: Homo sapiens, read-out: inhibition of cathepsin S-dependent invariant chain processing IC50
cathepsin S [2] = biological target: T1, cathepsin S (Mus musculus, UniProt O70370); assay: Cathepsin S enzyme across species: mouse; type: biochemical
cathepsin S enzyme [3] = biological target: cathepsin S enzyme (Rattus norvegicus, UniProt Q02765); assay: Cathepsin S enzyme across species: rat; type: biochemical
cathepsin S enzyme [4] = biological target: cathepsin S enzyme (Canis lupus familiaris, UniProt Q8HY81); assay: Cathepsin S enzyme across species: dog; type: biochemical
tumor invasion = assay: In vitro bioassay for tumor invasiveness; type: cell-based
angiogenesis = assay: In vitro bioassay for angiogenesis; type: cell-based
[5] = test system: 66.1 cancer cells in the bone; assay: Bone cancer pain study (breast cancer cells implanted in femur); type: in vivo, mice
Experimental: FIG. 3: Bone cancer and bone cancer pain study with Compound A. FIG. 3a: Protocol. Bone cancer pain study with Compound A. Dose groups: Vehicle, Zoledronate (100 μg/kg ) positive control, Compound A (100 mg/kg, daily dosing, SC, days 7-21), 10 animals per group Control animals were injected with media (and no tumor cells) in the femur. FIGS. 3b-3d. Left to right: Sham/media +Compound A, Cancer +vehicle, cancer +zoledronate, cancer +Compound A. FIG. 3b: Effects on bone destruction. […] Spontaneous Pain in the form of Flinching was attenuated by Compound Aon day 14 and day 21 with statistical significance, as compared to vehicle. […] Movement evoked pain was attenuated by Compound A on day 13 with statistical significance as compared to vehicle.
FIG. 6. Histology Analysis of Bone Samples in Bone Caner Pain Study. Representative bone sections from the study described in FIG. 3A were subjected to staining with the standard hematoxylin and eosin histological stain to visualize cellular structures in the bone. In FIG. 6, the pitting of the bone is shown and indicated from samples in the study arm with 66.1 cancer cells in the bone and dosed with vehicle control only, which is due to ostelytic activity induced by the presence of the 66.1 cancer cells in the bone.
FIG. 3a sets forth the treatment protocol for the bone cancer pain study with Compound A. Dose groups: Vehicle, Zoledronate (100 μg/kg) positive control, Compound A (100 mg/kg, daily dosing, SC, days 7-21), 10 animals per group. Mice were implanted with breast cancer cells in the femur on day 0 and treated with Compound A on days 7 through 21. On days 0, 7, 14, and 21 radiographic imaging, thermal hyperalgesia, tactile allodynia, movement-evoked and spontaneous pain measurements were taken. Pain measurements were made 6 hours after dosing. Control animals were injected with media (and no tumor cells) in the femur. […] Bone destruction was attenuated by Compound A on day 14 and day 21 as compared to vehicle. The efficacy was similar to that obtained with zoledronate (see, FIG. 3b). […] Spontaneous Pain in the form of Flinching was attenuated by Compound A on day 14 and day 21 with statistical significance, as compared to vehicle (see, FIG. 3d). […] Movement evoked pain was attenuated by Compound A on day 13 with statistical significance as compared to vehicle (see, FIG. 3e).
Compound A was dosed subcutaneously, at a 100 mg/kg dose once a day, in a nanoparticle-sized formulation suitable for subcutaneous dosing and diluted in D5W (sterile 5% dextrose in water). Dosing was initiated 7 days after the femur implantation of the 66.1 tumor cells and continued once a day.
The data in FIG. 6 is based on representative bone sections from the study described in FIG. 3A, which were subjected to staining with the standard histological stain hematoxylin and eosin, in order to visualize cellular structures in the bone. Visualized samples include bone sections from study animals with 66.1 tumor cells injected into bone and dosed with either vehicle control or compound A and also animals with media alone injected into bone and also dosed with compound A. Normal hemapoetic cells of the bone and the 66.1 cancer cells within the bone, as well as bone histomorphology, were visualized by this staining procedure. […] This is due to ostelytic activity induced by the presence of the 66.1 cancer cells in the bone.

[6] = Pharmacokinetic profile in mice; type: in vivo
Experimental: (§1) FIG. 4. Pharmacokinetics of Compound A. FIG. 4a: Compound A pharmacokinetic profile in mice and rats. FIG. 4b. Single dose pharmacokinetics in the mouse following intravenous (1 mg/kg) and oral doses (5 mg/kg). Plasma concentration values vs. time.

[7] = Pharmacokinetic profile in rats; type: in vivo
Experimental: as §1

[8] = test system: multiple human cathepsin enzymes; assay: Cathepsin inhibitory profile on multiple cathepsin enzymes; type: biochemical
From the text: FIG. 1. […] Methods are similar to those set forth in the Biological Examples.

cathepsin B = cathepsin B (Homo sapiens, UniProt P07858); assay: Activity-based probe (125-I labeled DMK) assay in HUVEC, cathepsin B; type: cell-based; set-up: endogenous in cells; host or cells: HUVEC
Experimental: (§2) FIG. 2. […] An activity-based probe assaying using 125-I labeled DMK reagent to assess the ability of Compound A to inhibit cathepsin L and cathepsin B protease activity in cells. In this assay human umbilical […] endothelial cells (HUVEC) are dosed with the indicated concentrations of Compound A in vitro. They are then incubated with the 125-I labeled activity probe for a short time, a cellular lysate produced, and the proteins analyzed biochemically by SDS PAGE. The gels are then imaged by autoradiography and the inhibition of protease activity, as assessed by the inhibition of activity probe binding, can be detected. FIG. 2b: Compound A inhibition of cathepsin S activity in the spleen in vivo as a function of time after dosing and plasma levels following a 10 mg/kg dose of the agent. […] The accumulation of the lip10 biomarker was tracked in spleen tissue samples taken from the treated animal. Accordingly, FIG. 2b. is based upon an assay which detects the accumulation of a proteolytic substrate of cathepsin S, the p10 fragment of invariant chain shown here as lip10, following dosing of Compound A in mice at 10 mg/kg/3 mice per time points are dosed with Compound A for the indicated times, and the spleens harvested and frozen. The level of lip10, an indicator cathepsin S inhibition is then detected using SDS PAGE and western blotting in lysates produced from the spleens. […]

cathepsin L = cathepsin L (Homo sapiens, UniProt P07711); assay: Activity-based probe (125-I labeled DMK) assay in HUVEC, cathepsin L; type: cell-based; set-up: endogenous in cells; host or cells: HUVEC
Experimental: as §2

cathepsin S [9] = biological target: T1, cathepsin S; assay: Accumulation of lip10 biomarker in spleen after dosing; type: in vivo; set-up: from tissue; host or cells: mouse spleen (in vivo dosing); details: mice, 10 mg/kg
Experimental: as §2

[10] = day 14 and day 21, 100 mg/kg, daily, SC, compared to vehicle

Sequence of cathepsin S enzyme (Rattus norvegicus, UniProt Q02765) (Q02765 113-330): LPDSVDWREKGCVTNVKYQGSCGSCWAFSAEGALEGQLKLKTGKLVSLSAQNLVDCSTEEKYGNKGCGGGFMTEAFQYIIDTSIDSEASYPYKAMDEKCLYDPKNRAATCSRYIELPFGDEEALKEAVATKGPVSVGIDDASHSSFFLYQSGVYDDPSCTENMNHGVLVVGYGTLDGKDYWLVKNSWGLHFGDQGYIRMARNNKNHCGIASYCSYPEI
Sequence of cathepsin S enzyme (Canis lupus familiaris, UniProt Q8HY81) (Q8HY81 115-331): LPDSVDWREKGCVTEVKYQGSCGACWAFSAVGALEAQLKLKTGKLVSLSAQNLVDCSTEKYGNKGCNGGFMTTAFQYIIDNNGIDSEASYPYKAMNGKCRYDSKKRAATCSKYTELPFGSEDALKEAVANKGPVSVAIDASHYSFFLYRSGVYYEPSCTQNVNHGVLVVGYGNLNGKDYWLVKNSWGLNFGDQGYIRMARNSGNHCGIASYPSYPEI
Sequence of cathepsin L (P07711 114-333): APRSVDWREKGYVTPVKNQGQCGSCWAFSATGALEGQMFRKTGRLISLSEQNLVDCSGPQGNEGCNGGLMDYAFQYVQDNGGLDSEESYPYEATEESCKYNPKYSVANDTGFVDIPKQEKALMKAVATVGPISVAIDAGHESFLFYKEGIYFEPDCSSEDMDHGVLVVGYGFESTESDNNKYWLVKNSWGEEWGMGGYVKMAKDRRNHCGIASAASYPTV

## CC[C@H](NC(=O)[C@H](CS(=O)(=O)CC1CC1)N[C@@H](c1ccc(F)cc1)C(F)(F)F)C(=O)C(=O)NC1CC1 [Compound A, (S)—N-cyclopropyl-3-((R)-3-((cyclopropylmethyl)sulfonyl)-2-(((S)-2,2,2-trifluoro-1-(4-fluorophenyl)ethyl)amino)propanamido)-2-oxopentanamide]
[1]
  IC50: < 10 nM
Cathepsin S [2]
  IC50: < 0.25 nM
Cathepsin S enzyme [3]
  IC50: 0.77 nM
Cathepsin S enzyme [4]
  IC50: 0.25 nM
Tumor invasion
  tumor invasion: inhibited
angiogenesis
  angiogenesis: inhibited
[5]; 100 mg/kg SC once a day, nanoparticle-sized formulation in D5W
  bone pitting (histology, hematoxylin and eosin): reduced
[5]; after 7 days of drug washout
  effect after drug washout: without any significant effect
[5]; day 13, 100 mg/kg, daily, SC, compared to vehicle
  movement evoked pain: attenuated
[5]; [10]
  bone destruction: attenuated
  spontaneous pain in the form of Flinching: attenuated
[5]; day 14 and day 21, 100 mg/kg, daily, SC, compared to vehicle or zoledronate
  spontaneous pain in the form of Guarding: attenuated
[5]; day 21, 100 mg/kg, daily, SC, days 7-21, compared to vehicle
  body weight: retained weight as compared to vehicle
[6]
  pharmacokinetics: very favorable pharmacokinetics
[7]
  pharmacokinetics: very favorable pharmacokinetics
[8]
  cathepsin inhibitory profile on multiple cathepsin enzymes: very high potency and selectivity
Cathepsin B
  inhibition of cathepsin B activity in endothelial cells, potency: single digit nanomolar potency
Cathepsin L
  inhibition of cathepsin L activity in endothelial cells, potency: single digit nanomolar potency
Cathepsin S [9]
  activity in vivo as judged by accumulation of a biomarker (lip10) in the spleen: active in vivo
